# PubChem BioAssay AID1117319 (Southern Research Institute, 2015)
# “And” between values parts separate entries of the source, which are not always exact repeats. Equal entries are not always repeated. Inconclusive results are not listed.
# Biological target: Virion infectivity factor (Human immunodeficiency virus type 1 group M subtype B (isolate BH10)) + Virion infectivity factor (Human immunodeficiency virus type 1 group M subtype B (isolate BRU/LAI)) + Virion infectivity factor (Human immunodeficiency virus type 1 group M subtype B (isolate PCV12)) + Virion infectivity factor (Human immunodeficiency virus type 1 group M subtype B (isolate HXB2)) + DNA dC->dU-editing enzyme APOBEC-3G (Homo sapiens) (UniProt P69720+P69721+P69722+P69723+Q9HC16)
# Assay: inhibitors of Vif binding to APOBEC3G peptide, primary screen, biochemical, TR-FRET, GST-Vif 1-94, biotin-A3G peptide, dose response retest (AID 1117319);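 further: Vif residues 1-94 fused to GST binding biotinylated APOBEC3G peptide 110-148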
row,Compound,IC50
1,CCOC(=O)CSc1nc2c(sc(=S)n2-c2ccccc2OC)c(=O)n1Cc1ccco1,27.2 µM
2,COC(=O)C1=C(C)NC(=O)/C1=C\c1cc(C)n(-c2ccccc2C)c1C,14.2 µM
3,O=S(=O)(O)c1cc(O)c2c(O)c(N=Nc3cc(Cl)ccc3O)c(S(=O)(=O)O)cc2c1,78.5 µM
4,COc1ccc(N2C3=C(CC4=C2CCCC4=O)C(=O)CCC3)cc1,26.3 µM
5,COc1ccc(OC)c(S(=O)(=O)Nc2ccc(O)c3ccccc23)c1,8.62 µM
6,Cc1cc(C)c([N+](=O)[O-])cc1-c1ccc(/C=N/c2c(-c3ccco3)nc3ccccn23)o1,42.4 µM
7,COc1ccc(N=C2S/C(=C\c3ccc(C)o3)C(=O)N2CC(C)C)cc1,39.7 µM
8,CN(CC(=O)Nc1cccc(F)c1)C(=O)c1cccc(-n2cccc2)c1,8.08 µM
9,CCN=c1scc(C)n1/N=C/c1ccc(O)c(O)c1O,2.47 µM
10,C=C(C)C(=O)Nc1cccc(C2=NOC3(C2)C[C@@H](C(N)=O)N(C(=O)c2cc([N+](=O)[O-])cc([N+](=O)[O-])c2)C3)c1 (some centres undefined),4.69 µM
11,O=c1ccc2c(-c3ccccc3S(=O)(=O)O)c3ccc(O)c(O)c3oc-2c1O,0.34 µM
12,O=C1C=C(N2CC2)c2ccccc2C1=O,11.3 µM
13,O=C(CN1CCN(c2ccccc2O)CC1)Nc1ccc2c(c1)CCC2,50.8 µM
14,COc1cccc(CNC(=O)CCNS(=O)(=O)c2cccs2)c1,1.44 µM
15,Cc1cc(C)c([N+](=O)[O-])cc1-c1ccc(/C=N/NC(=O)c2nonc2N)o1,52.7 µM
16,CCN(CC)c1ccc2oc(=O)c(C)nc2c1,2.87 µM
17,Fc1cccc(-c2cc3nc4c(c(NCc5ccco5)n3n2)CCCC4)c1,50.8 µM
18,CCOCCNC(=O)c1ccccc1C(=O)NCCOCC,89.2 µM
19,CCOc1ccc(-n2c(=O)c3c(C)c(C)sc3n(CC(=O)NCc3ccco3)c2=O)cc1,74.9 µM
20,Cc1ccc(NC(=O)c2cc(-c3ccc(C)o3)nc3ccccc23)nc1,33.6 µM
21,CC(=O)Nc1ccc(S(=O)(=O)N2CCN(Cc3ccccn3)CC2)cc1,77.4 µM
22,Cc1ccnc(NS(=O)(=O)c2ccc(NC(=O)Cc3cccs3)cc2)n1,8.35 µM

row,Compound,IC50
1,Cc1cc(C(=O)O)ccc1-n1c(C)ccc1C,5.16 µM
2,Cc1c(NC(=O)c2cc(-c3cccs3)on2)c(=O)n(-c2ccccc2)n1C,39.9 µM
3,CC(C)C(C(=O)O)N1C(=O)/C(=C/C=C/c2ccco2)SC1=S (centres undefined),0.36 µM
4,CCc1c(C)sc(NC(=O)OC)c1C(=O)N1CCCCC1,42.7 µM
5,CCOC(=O)c1ccc(CC(=O)c2ccc(O)c(O)c2O)o1,11.5 µM
6,Cc1ccc(-c2nnn(CC(=O)N(c3ccc(F)cc3)C(C(=O)NC3CCCC3)c3ccco3)n2)o1 (centres undefined),85.8 µM
7,CCOC(=O)C1=C(N)n2c(s/c(=C\c3ccco3)c2=O)=C(C(=O)OCC)C1c1ccco1 (centres undefined),1.41 µM
8,CCOC(=O)C1=C(Cc2ccc(Cl)cc2)C(=O)c2ccccc2C1=O,34.7 µM
9,C=CCN=c1scc(C)n1/N=C/c1ccc(O)c(O)c1,15.4 µM
10,Cc1cc(S(=O)(=O)N(Cc2ccccn2)Cc2ccco2)ccc1-n1cnnn1,83.6 µM
11,COc1ccc(OC)c(Nc2nc(-c3ccc(O)c(O)c3)cs2)c1,4.19 µM
12,C/C(N)=C(/C#N)C(=O)CSc1nnc(NC(C)C)s1,9.7 µM
13,CS(=O)(=O)c1ccc2c(c1)SC1=NC(=O)/C(=C/c3ccco3)C(=N)N12,6.32 µM
14,O=S(=O)(c1ccc2nc(-c3ccco3)c(-c3ccco3)nc2c1)N1CCOCC1,6.38 µM and 3.81 µM
15,CC(C)CC(=O)Nc1nnc(-c2ccco2)s1,68.1 µM
16,C=CCn1c(SCC(=O)NCCCC)nc2scc(-c3ccco3)c2c1=O,20.4 µM
17,O=C1/C(=C/C=C/c2ccco2)SC(=S)N1NS(=O)(=O)c1ccccc1,2.9 µM
18,O=C1NC(=S)S/C1=C\C=C\c1ccc([N+](=O)[O-])o1,1.84 µM
19,COC(=O)COc1ccc(S(=O)(=O)Nc2cc(OC)ccc2OC)cc1,5.05 µM
20,O=C(O)COc1ccc2c(c1)O/C(=C\c1ccco1)C2=O,22.5 µM
21,CSc1nc(N2CCOCC2)c2c3c(sc2n1)CCC3,42.1 µM
22,CC(=O)C1=C(C)NC(C)=C(C(C)=O)C1c1cccs1,23.5 µM
